These results are taken from ChEMBL document CHEMBL1201862, “PubChem BioAssay data set” (2004).

The structures appear in SMILES notation.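 How tested: cells in 96-well plates exposed to compound for 48 hours at five concentrations. At the GI50, growth is halved.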 Calls of active or inactive are those of the source. Rule as the data show it: active = GI50 up to about 1.1 µM and inactive = higher.

Test systems include ACHN; BT-549; CCRF-CEM; COLO 205; HCT-116; HL-60; HOP-62; IGROV-1; K562; M14; MDA-MB-435; MOLT-4; NCI-H23; NCI-H460; PC-3; RPMI-8226; SF-268; SK-MEL-5; UACC-62.
Test in all cases: NCI anticancer screen, dose series, 48 h

As to `O=C(O)CNC(=O)c1ccc([As](=O)(O)O)cc1`, the GI50 in the experiment on ACHN, in the experiment on BT-549, with CCRF-CEM, with COLO 205, with HCT-116 and in the experiment with HL-60 was > 100 µM (inactive) throughout. The GI50 in the experiment on HOP-62, in the experiment on IGROV-1, with K562, with M14, in the experiment on MDA-MB-435 and in the experiment with MOLT-4 was > 100 µM (inactive) throughout. The GI50 with NCI-H23, in the experiment on NCI-H460, in the experiment with PC-3, in the experiment with RPMI-8226, in the experiment with SF-268 and with SK-MEL-5 was > 100 µM (inactive) in each case. The GI50 in the experiment with UACC-62 is > 100 µM (inactive).
As to `COc1ccc(/C=C/c2nccc3ccccc23)cc1OC`, the GI50 was > 10 µM (inactive) with ACHN; > 10 µM (inactive) with BT-549; 6.52 µM (inactive) with CCRF-CEM; > 10 µM (inactive) with COLO 205; 5.9 µM (inactive) in the experiment on HCT-116; > 10 µM (inactive) with HL-60. For the same compound, the GI50 in the experiment with HOP-62 was > 10 µM (inactive); with IGROV-1 it was > 10 µM (inactive); in the experiment on K562 it was 5.5 µM (inactive); with M14, > 10 µM (inactive); in the experiment with MDA-MB-435, 6.64 µM (inactive); in the experiment with MOLT-4, 4.52 µM (inactive). Further, the GI50 in the experiment with NCI-H23 is 7.21 µM (inactive); in the experiment on NCI-H460 it was > 10 µM (inactive); in the experiment on PC-3 it was > 10 µM (inactive); with RPMI-8226, 5.98 µM (inactive); with SF-268, > 10 µM (inactive); in the experiment on SK-MEL-5, 6.21 µM (inactive). Moreover, the GI50 with UACC-62 was > 10 µM (inactive).
For `O=P1(c2ccccc2)C(c2ccccc2)CCC1c1ccccc1` (stereo not drawn), the GI50 was 29.7 µM (inactive) with BT-549; 21.4 µM (inactive) in the experiment on CCRF-CEM; 66.7 µM (inactive) with COLO 205; 35.6 µM (inactive) in the experiment with HCT-116; 10.2 µM (inactive) in the experiment on HL-60; > 100 µM (inactive) in the experiment with HOP-62. Moreover, the GI50 in the experiment on IGROV-1 is 82.6 µM (inactive); with K562, 10.8 µM (inactive); with M14, 68.5 µM (inactive); in the experiment with MDA-MB-435 it was 34.9 µM (inactive); with MOLT-4, 32.2 µM (inactive); in the experiment with NCI-H23, 48.4 µM (inactive). Moreover, the GI50 with PC-3 is 33.6 µM (inactive); in the experiment on RPMI-8226, 22.1 µM (inactive); in the experiment on SF-268 it was > 100 µM (inactive); in the experiment with SK-MEL-5, 37.2 µM (inactive); with UACC-62, 50.7 µM (inactive).
For `CC1OC23CCCCC2C(C#N)(C#N)C1(C#N)C(=N)O3` (stereo not drawn), the GI50 with ACHN was 19.9 µM (inactive); in the experiment with BT-549, 17.7 µM (inactive); in the experiment with CCRF-CEM it was 5.94 µM (inactive); in the experiment with COLO 205 it was 14.7 µM (inactive); in the experiment with HCT-116, 16.6 µM (inactive); in the experiment with HL-60 it was 4.21 µM (inactive). The GI50 in the experiment with IGROV-1 is 19.6 µM (inactive); in the experiment with K562 it was 13.7 µM (inactive); in the experiment on M14, 20.1 µM (inactive); in the experiment on MDA-MB-435 it was 20.8 µM (inactive); in the experiment on MOLT-4 it was 23.2 µM (inactive); in the experiment with NCI-H23 it was 21 µM (inactive). The GI50 was 17.9 µM (inactive) in the experiment on NCI-H460; 24.4 µM (inactive) in the experiment on PC-3; 24.7 µM (inactive) in the experiment on SF-268; 16.3 µM (inactive) in the experiment on SK-MEL-5; > 10 µM (inactive) with UACC-62.
For the compound `Cn1c(=O)n2n(c1=O)C1C(=CC2)C2C=CC1n1c(=O)n(C)c(=O)n12` (stereo not drawn), the GI50 in the experiment with ACHN, with BT-549, with CCRF-CEM, in the experiment with COLO 205, in the experiment with HCT-116 and with HL-60 was > 100 µM (inactive) throughout. Also, the GI50 with HOP-62, in the experiment with IGROV-1, in the experiment with K562, in the experiment on M14, in the experiment on MDA-MB-435 and with MOLT-4 was > 100 µM (inactive) each time. The GI50 in the experiment on NCI-H23, with NCI-H460, with PC-3, with RPMI-8226, with SF-268 and with SK-MEL-5 was > 100 µM (inactive) throughout. Also, the GI50 with UACC-62 was > 100 µM (inactive).
As to `CC/C(Cl)=N\OC(=O)Nc1ccc(F)cc1F`, the GI50 is 1.89 µM (inactive) with ACHN; 2.38 µM (inactive) in the experiment on BT-549; 1.54 µM (inactive) in the experiment on CCRF-CEM; 1.91 µM (inactive) in the experiment with COLO 205; 6.62 µM (inactive) with HCT-116; 1.91 µM (inactive) in the experiment on HL-60. For the same compound, the GI50 in the experiment on HOP-62 was 21 µM (inactive); in the experiment on IGROV-1, 15.9 µM (inactive); in the experiment on K562, 0.244 µM (active); with M14, 7.6 µM (inactive); in the experiment with MDA-MB-435, 17 µM (inactive); in the experiment on MOLT-4, 1.55 µM (inactive). Besides, the GI50 with NCI-H23 is 20 µM (inactive); in the experiment on NCI-H460 it was 29.1 µM (inactive); in the experiment with PC-3, 17.7 µM (inactive); in the experiment on RPMI-8226 it was 1.49 µM (inactive); in the experiment with SF-268 it was 24.1 µM (inactive); in the experiment on SK-MEL-5 it was 6.12 µM (inactive). Besides, the GI50 in the experiment with UACC-62 is 15.2 µM (inactive).
Consider `COc1cc(NS(C)(=O)=O)ccc1Nc1ccnc2ccc3[nH]ccc3c12`, for which the GI50 in the experiment with ACHN is 18.4 µM (inactive); in the experiment with BT-549, 14.6 µM (inactive); in the experiment with CCRF-CEM it was 10.4 µM (inactive); in the experiment on COLO 205, 17 µM (inactive); with HCT-116, 12.2 µM (inactive); in the experiment on HL-60 it was 31.5 µM (inactive). Besides, the GI50 in the experiment with HOP-62 is 15.8 µM (inactive); with IGROV-1, 16.1 µM (inactive); in the experiment on K562 it was 10.9 µM (inactive); with M14, 16.4 µM (inactive); in the experiment with MDA-MB-435, 15.6 µM (inactive); in the experiment on NCI-H23, 13.7 µM (inactive). Further, the GI50 with NCI-H460 is 18.2 µM (inactive); with PC-3, 13.1 µM (inactive); with RPMI-8226 it was 15 µM (inactive); in the experiment on SF-268, 11 µM (inactive); in the experiment on SK-MEL-5 it was 15.3 µM (inactive); with UACC-62, 17.8 µM (inactive).
Turning to `CC(C)(O)C1OCC(C2CCC3(C)C4=CCC5C(C)(C)C(O)CCC5(C)C4CCC23C)CC1O` (stereo not drawn), the GI50 was 15.3 µM (inactive) in the experiment on ACHN; 11.1 µM (inactive) with BT-549; 26.4 µM (inactive) in the experiment on CCRF-CEM; 15 µM (inactive) with COLO 205; 14.5 µM (inactive) with HCT-116; > 100 µM (inactive) in the experiment with HL-60. The GI50 in the experiment on IGROV-1 is 17.3 µM (inactive); in the experiment on K562 it was 4.44 µM (inactive); with M14 it was 27.7 µM (inactive); in the experiment with MDA-MB-435 it was 15.5 µM (inactive); in the experiment with MOLT-4, 10.8 µM (inactive); in the experiment on NCI-H23, 23.2 µM (inactive). The GI50 was 13.4 µM (inactive) in the experiment with NCI-H460; 10.5 µM (inactive) in the experiment with PC-3; 7.94 µM (inactive) in the experiment on RPMI-8226; 16.1 µM (inactive) in the experiment with SF-268; 14.7 µM (inactive) in the experiment on SK-MEL-5; 14.9 µM (inactive) in the experiment with UACC-62.
In the case of `C#CCNCC(=O)O`, the GI50 in the experiment on ACHN, with BT-549, in the experiment on CCRF-CEM, in the experiment with COLO 205, in the experiment with HCT-116 and in the experiment with HOP-62 was > 100 µM (inactive) throughout. Moreover, the GI50 with IGROV-1, in the experiment on M14, in the experiment on MDA-MB-435, in the experiment with MOLT-4, in the experiment on NCI-H23 and in the experiment with PC-3 was > 100 µM (inactive) each time. Besides, the GI50 with RPMI-8226, in the experiment on SF-268, in the experiment with SK-MEL-5 and with UACC-62 was > 100 µM (inactive) in each case.
For the compound `CCCCCCCCCCCCCCCCOCC(CC(F)(F)P(=O)(O)O)OC(C)=O` (stereo not drawn), the GI50 in the experiment on ACHN was > 50 µM (inactive); in the experiment with BT-549, > 50 µM (inactive); in the experiment with COLO 205, > 50 µM (inactive); with HCT-116 it was > 50 µM (inactive); in the experiment on HOP-62, 15.1 µM (inactive); with IGROV-1, > 50 µM (inactive). Moreover, the GI50 in the experiment with K562, with M14, in the experiment on MDA-MB-435, with MOLT-4, in the experiment on NCI-H23 and with NCI-H460 was > 50 µM (inactive) each time. For the same compound, the GI50 with PC-3, in the experiment on RPMI-8226, in the experiment with SF-268, in the experiment on SK-MEL-5 and with UACC-62 was > 50 µM (inactive) in each case.
Regarding `NC(=O)c1nnn(-c2ccccc2)c1O`, the GI50 was > 100 µM (inactive) in the experiment on ACHN; > 100 µM (inactive) with BT-549; > 100 µM (inactive) in the experiment with CCRF-CEM; > 100 µM (inactive) in the experiment with COLO 205; > 100 µM (inactive) with HCT-116; 0.1 µM (active) in the experiment on HL-60. In addition, the GI50 in the experiment with HOP-62, in the experiment on IGROV-1, in the experiment with K562, with M14, in the experiment on MDA-MB-435 and in the experiment on MOLT-4 was > 100 µM (inactive) in each case. For the same compound, the GI50 with NCI-H23, with NCI-H460, in the experiment with PC-3, in the experiment on RPMI-8226, in the experiment on SF-268 and in the experiment on SK-MEL-5 was > 100 µM (inactive) each time. The GI50 in the experiment with UACC-62 was > 100 µM (inactive).
